Data on 13 molecules can be found in patent US6660752B2, “2,6-Substituted chroman derivatives useful as beta-3 adrenoreceptor agonists” (Bayer Pharmaceuticals Corporation, priority 2001, dated 2003).

T1 sequence (P13945 whole entry): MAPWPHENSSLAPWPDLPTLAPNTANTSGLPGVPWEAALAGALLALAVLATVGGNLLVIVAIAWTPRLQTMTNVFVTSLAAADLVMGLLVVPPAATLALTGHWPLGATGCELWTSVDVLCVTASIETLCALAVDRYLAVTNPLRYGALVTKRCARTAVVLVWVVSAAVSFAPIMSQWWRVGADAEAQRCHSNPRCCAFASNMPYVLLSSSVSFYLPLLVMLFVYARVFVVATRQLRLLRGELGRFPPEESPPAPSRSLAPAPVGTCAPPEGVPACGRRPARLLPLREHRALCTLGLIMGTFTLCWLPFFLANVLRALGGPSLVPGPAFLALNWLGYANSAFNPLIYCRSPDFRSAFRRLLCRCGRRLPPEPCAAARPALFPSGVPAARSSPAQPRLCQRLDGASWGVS

One assay has as its target T1, human beta-3-adrenergic receptor (Homo sapiens, UniProt P13945).
T1 construct: stably express full-length human beta-3-adrenergic receptor; expressed in transfected cells; host or cells: Chinese hamster ovary (CHO) cells
The assay is described as follows: cAMP production (beta-3 agonist activity) in CHO cells stably expressing human beta-3-adrenergic receptor, cAMP SPA. Format: cell-based. The note with it: CHO cells expressing full-length human beta-3-adrenergic receptor, 30 min incubation, 10 μM to 3 nM, read-out: Beta-3 Agonistic Activity: Compounds with EC50 values >1 μM. As for the experimental part: Chinese hamster ovary (CHO) cells that stably express full-length human beta-3-adrenergic receptor (Granneman et al., Mol. Pharmacol. 44:264-270, 1993) can be used in the following procedure. The cell line is grown in 90% F12 nutrient mixture (HAM), 10% fetal bovine serum, 100 units/ml penicillin G sodium, […] streptomycin sulfate, and 2 mM L-glutamine at 37° C. in 95% air and 5% CO2. The transfected cell line is maintained with G-418 (800 μg/ml).
To test the agonist activity, cells are exposed to test compound and then assayed for cAMP production. CHO cells (100 μl) are plated at 5×10^4 cells/well of a 96-well plate (Costar, Cambridge, Mass.) to achieve 70% confluency the next day. After overnight incubation at 37° C., media is removed and the cells are treated for 30 minutes at 37° C. with KRP buffer (120 mM NaCl, 5.1 mM KCl, 0.6 mM MgSO4.7H2O, 0.8 mM CaCl2.H2O, […] phosphate buffer, […] Hepes pH 7.4)+[…] IBMX ([…]), +1% DMSO, +/− test compounds ([…]). Test compounds are assayed from 10 μM to 3 nM with 3-fold serial dilutions. The control agonist, isoproterenol (10 mM stock in 1.1 mM ascorbate), is assayed by 3-fold dilution beginning at 1 μM. After a 30-minute incubation with the test compounds, the buffer/compound mixture is removed. The cells are lysed and cAMP levels are measured using the cAMP SPA screening assay system (Amersham, Arlington Heights, Ill.). The cAMP values are then plotted to determine the EC50 of each compound tested.
In general terms: Cyclic AMP is a second messenger, typically raised through Gs and lowered through Gi signalling.
As to `Nc1ccc([C@@H](O)CNC[C@H]2CCc3cc(C(=O)N4CCC[C@H]4C(=O)O)ccc3O2)cn1` [Example 363], the half-maximal effective concentration (EC50) is over 1000 nM.

The same assay, now with this note: CHO cells expressing full-length human beta-3-adrenergic receptor, 30 min incubation, 10 μM to 3 nM, read-out: Beta-3 Agonistic Activity: Compounds with EC50 values ≦1 μM.
With `O=S(=O)(Nc1ncccn1)c1ccc(-c2ccc3c(c2)CC[C@H](CNC[C@H](O)c2cccnc2)O3)cc1` [Example 249A, 4-[(2R)-2-({[(2R)-2-hydroxy-2-(3-pyridinyl)ethyl]amino}methyl)-3,4-dihydro-2H-chromen-6-yl]-N-(2-pyrimidinyl)benzenesulfonamide], the concentration for a half-maximal effect (EC50) is at most 1000 nM.

For `NS(=O)(=O)c1ccc(-c2ccc3c(c2)CC[C@H](CNC[C@H](O)c2cccnc2)O3)cc1` [Example 325, 4-[(2R)-2-({[(2R)-2-hydroxy-2-(3-pyridinyl)ethyl]amino}methyl)-3,4-dihydro-2H-chromen-6-yl]benzenesulfonamide], the concentration giving a half-maximal response (EC50) was at most 1000 nM. Still for that read-out and setting: the figure for `COC(=O)c1cccc(-c2ccc3c(c2)CC[C@H](CNC[C@H](O)c2ccc(N)nc2)O3)c1` [Example 382] is at most 1000 nM; for `O=S(=O)(Nc1ccc(-c2ccc3c(c2)CC[C@H](CNC[C@H](O)c2cccnc2)O3)nc1)c1ccc(Cl)cc1` [Example 320, 4-chloro-N-{6-[(2R)-2-({[(2R)-2-hydroxy-2-(3-pyridinyl)ethyl]amino}methyl)-3,4-dihydro-2H-chromen-6-yl]-3-pyridinyl}benzenesulfonamide] it is at most 1000 nM; for `O=C(Nc1ccc(-c2ccc3c(c2)CC[C@H](CNC[C@H](O)c2cccnc2)O3)nc1)c1ccccc1` [Example 322] it is at most 1000 nM. In the case of `O=C(NS(=O)(=O)c1ccc(-c2ccc3c(c2)CC[C@H](CNC[C@H](O)c2cccnc2)O3)cc1)C1CC1` [Example 285, N-(cyclopropylcarbonyl)-4-[(2R)-2-({[(2R)-2-hydroxy-2-(3-pyridinyl)ethyl]amino}methyl)-3,4-dihydro-2H-chromen-6-yl]benzenesulfonamide], the half-maximal effective concentration (EC50) is at most 1000 nM. Take `Nc1ccc([C@@H](O)CNC[C@H]2CCc3cc(-c4cccc(C(=O)O)c4)ccc3O2)cn1` [Example 386, 3-[(2R)-2-({[(2R)-2-(6-amino-3-pyridinyl)-2-hydroxyethyl]amino}methyl)-3,4-dihydro-2H-chromen-6-yl]benzoic Acid]: the EC50 is at most 1000 nM. For `O=S(=O)(Nc1ncccn1)c1cccc(-c2ccc3c(c2)CC[C@H](CNC[C@H](O)c2cccnc2)O3)c1` [Example 261, 3-[(2R)-2-({[(2R)-2-hydroxy-2-(3-pyridinyl)ethyl]amino}methyl)-3,4-dihydro-2H-chromen-6-yl]-N-(2-pyrimidinyl)benzenesulfonamide], the concentration for a half-maximal effect (EC50) was at most 1000 nM. Consider `CCCOc1cc(-c2ccc3c(c2)CC[C@H](CNC[C@H](O)c2cccnc2)O3)ccc1C(=O)O` [Example 186, 4-[(2R)-2-({[(2R)-2-hydroxy-2-(3-pyridinyl)ethyl]amino}methyl)-3,4-dihydro-2H-chromen-6-yl]-2-propoxybenzoic acid], for which the EC50 was at most 1000 nM.

`O=C(O)c1ccc(-c2ccc3c(c2)CC[C@H](CNC[C@H](O)c2cccc(Cl)c2)O3)cc1` [Example 344, 4-[(2R)-2-({[(2R)-2-(3-chlorophenyl)-2-hydroxyethyl]amino}methyl)-3,4-dihydro-2H-chromen-6-yl]benzoic acid]: the concentration for a half-maximal effect (EC50) was at most 1000 nM.

Turning to `O=C(O)c1ccc(-c2ccc3c(c2)CC[C@H](CNC[C@H](O)c2cccnc2)O3)cc1Oc1ccc(F)cc1` [Example 193, 2-(4-fluorophenoxy)-4-[(2R)-2-({[(2R)-2-hydroxy-2-(3-pyridinyl)ethyl]amino}methyl)-3,4-dihydro-2H-chromen-6-yl]benzoic acid], the EC50 was at most 1000 nM. With `CC(C)Cc1cc(-c2ccc3c(c2)CC[C@H](CNC[C@H](O)c2cccnc2)O3)ccc1C(=O)O` [Example 211, 4-[(2R)-2-({[(2R)-2-hydroxy-2-(3-pyridinyl)ethyl]amino}methyl)-3,4-dihydro-2H-chromen-6-yl]-2-isobutylbenzoic Acid], the concentration for a half-maximal effect (EC50) is at most 1000 nM.

As a reminder, the EC50 is the concentration at which the effect is half-maximal.
